pIC50: −log10 of the molar value.
System: PDC 899932-113-R3-J6 complex spheroid viability
Test: Anticancer human tumor 899932-113-R3-J6-PDC patient-derived melanoma cell line growth inhibition [RAS]
Conditions: for pIC50: curve of first compound; for viability, T/C: stronger effect = lower value
Excerpt: RAS pathway inhibitors in Combinations in Complex Spheroids
A high-throughput screen of multi-cell type tumor spheroids was designed to identify active combinations of RAS pathway inhibitors and targeted small molecules. Complex spheroids include a stromal component modeled by human endothelial cells (HUVEC) and fibroblasts modeled by human mesenchymal stem cells (MSCs). The concentration ranges selected for each drug and investigational agent were based upon clinically achievable concentrations if the clinical Cmax of the agent was known.
Compounds. The drugs and investigational agents: abemaciclib (NSC768073), cobimetinib (NSC768068), divarasib (GDC6063, NSC841802), docetaxel (NSC628503), GDC-1971 (RLY-1971, NSC841576), gemcitabine (NSC613327), inavolisib (NSC800729), ipatasertib (NSC767898), KB-0742 (NSC834161), MRTX-1133 (NSC836407), osimertinib (NSC779217), RMC-4630 (NSC839698), RMC-6236 (NSC851965), RMC-6291 (NSC852671), Ro-3306 (NSC812927), sapanisertib (NSC764658), SN-38 (NSC673596), staurosporine (NSC755774), SY5609 (NSC837396), and tovorafenib (DAY101, NSC766906), were obtained from the National Cancer Institute (NCI) Developmental Therapeutics Program Chemical Repository. The FDA-approved anticancer drug set is available from the NCI Developmental Therapeutics Program. […] The stock solutions were prepared in dimethyl sulfoxide (DMSO, Sigma-Aldrich, St. Louis, MO, cat. D2650) at 800-fold the tested concentration and stored at -70 degrees C prior to their use. All drugs and investigational agents were tested over a range starting from a high concentration at or near the clinical Cmax and decreasing in half-log increments. If the clinical Cmax for an agent had not been determined, the highest concentration tested was 10 microM.
Cell Culture. All cells were maintained in an incubator at 37 degrees C and 5% CO2 with 95% humidity. The PDC lines were cultured according to standard operating procedures established by the NCI PDMR. All PDCs were thawed and cultured in Matrigel-coated flasks prepared with a working solution of 1X Ham's F-12 nutrient mix, without supplementation (Invitrogen, Waltham, MA, cat. 11765054), 100 U/mL penicillin-streptomycin (Invitrogen, cat. 15140122), and 2.5% Matrigel (Corning Inc., Corning, NY, cat. 354248) for the first three passages. The 362531-283-R-J2-PDC and 782815-120-R-J1-PDC lines were cultured in 6C/Colon 1B media, which includes advanced DMEM/F-12 (Thermo Fisher Scientific, cat. 12634028), 10 mM HEPES (Thermo Fisher Scientific, cat. 15630080), 1X GlutaMAX supplement (Thermo Fisher Scientific, cat. 35050061), 0.1 mg/mL primocin (InvivoGen, San Diego, CA, cat. ant-pm-2), 10% defined fetal bovine serum, heat inactivated (HyClone Laboratories Inc., Logan, UT, cat. SH30070.03HI), 50% L-WRN conditioned media (ATCC, cat. CRL-3276), 1.25 mM N-Acetyl-L-cysteine (Sigma-Aldrich, cat. A9165), 10 mM nicotinamide (Sigma-Aldrich, cat. N0636), 1X B-27 supplement (Thermo Fisher Scientific, cat. 17504044), 1X N-2 supplement (Thermo Fisher Scientific, cat. 17502048), 50 ng/mL human EGF (Thermo Fisher Scientific, cat. PHG0311), and 10 microM Y-27632 dihydrochloride (Tocris Bioscience, cat. 1254). The K12877-001-R-J1-PDC line was cultured in 6I media, which includes all 6C/Colon 1B media plus 10 ng/mL human FGF-10 (PeproTech, cat. 100-26), 1 ng/mL human FGF-2 (PeproTech, cat. 100-18B), 1 µM prostaglandin E2 (Tocris Bioscience, cat. 2296), […] hydrocortisone (Sigma-Aldrich, cat. H4001), and […] bovine insulin (Sigma-Aldrich, cat. I6634). The K86415-001-R-J1-PDC line was cultured in 6D media, which includes all 6C/Colon 1B media components minus the L-WRN conditioned media. The 485176-168-R4-J1-PDC was cultured in PANC media, which includes all 6C/Colon 1B media plus 100 ng/mL human FGF-10 (PeproTech, cat. 100-26), 500 nM SB-431542 (Selleckchem, cat. S1067), and 10 nM gastrin (Tocris Bioscience, cat. 3006). […]

[1] = second compound 0.0316 µM, first compound 0.0316 µM
[2] = second compound 0.0316 µM, first compound 0.1 µM
[3] = second compound 0.0316 µM, first compound 0.316 µM
[4] = second compound 0.0316 µM, first compound 1 µM
[5] = second compound 0.0316 µM, first compound 3.16 µM
[6] = second compound 0.0316 µM, first compound 10 µM
[7] = second compound 0.1 µM, first compound 0.0316 µM
[8] = second compound 0.1 µM, first compound 0.1 µM
[9] = second compound 0.1 µM, first compound 0.316 µM
[10] = second compound 0.1 µM, first compound 1 µM
[11] = second compound 0.1 µM, first compound 3.16 µM
[12] = second compound 0.1 µM, first compound 10 µM
[13] = second compound 0.316 µM, first compound 0.0316 µM
[14] = second compound 0.316 µM, first compound 0.1 µM
[15] = second compound 0.316 µM, first compound 0.316 µM
[16] = second compound 0.316 µM, first compound 1 µM
[17] = second compound 0.316 µM, first compound 3.16 µM
[18] = second compound 0.316 µM, first compound 10 µM
[19] = second compound 1 µM, first compound 0.0316 µM
[20] = second compound 1 µM, first compound 0.1 µM
[21] = second compound 1 µM, first compound 0.316 µM
[22] = second compound 1 µM, first compound 1 µM
[23] = second compound 1 µM, first compound 3.16 µM
[24] = second compound 1 µM, first compound 10 µM
[25] = second compound 3.16 µM, first compound 0.0316 µM
[26] = second compound 3.16 µM, first compound 0.1 µM
[27] = second compound 3.16 µM, first compound 0.316 µM
[28] = second compound 3.16 µM, first compound 1 µM
[29] = second compound 3.16 µM, first compound 3.16 µM
[30] = second compound 3.16 µM, first compound 10 µM
[31] = second compound 10 µM, first compound 0.0316 µM
[32] = second compound 10 µM, first compound 0.1 µM
[33] = second compound 10 µM, first compound 0.316 µM
[34] = second compound 10 µM, first compound 1 µM
[35] = second compound 10 µM, first compound 3.16 µM
[36] = second compound 10 µM, first compound 10 µM
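Throughout, for viability, T/C: spheroids exposed to agents for seven days before readout; 100% = DMSO vehicle control wells.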

SMILES: CC1(O)CCCC1n1c(=O)c(C(F)F)cc2cnc(NC3CCN(S(C)(=O)=O)CC3)nc21 (centres undefined) + C#Cc1c(F)ccc2cc(O)cc(-c3ncc4c(N5CC6CCC(C5)N6)nc(OCC56CCCN5CC(F)C6)nc4c3F)c12
- pIC50 (second compound 0.0316 µM): 5.61
- pIC50 (second compound 0.1 µM): 5.59
- pIC50 (second compound 0.316 µM): 5.49
- pIC50 (second compound 1 µM): 5.46
- pIC50 (second compound 3.16 µM): 5.52
- pIC50 (second compound 10 µM): 5.51
- viability, T/C [1]: 105%
- viability, T/C [2]: 81.1%
- viability, T/C [3]: 70.8%
- viability, T/C [4]: 69.9%
- viability, T/C [5]: 54.9%
- viability, T/C [6]: 21.6%
- viability, T/C [7]: 96.2%
- viability, T/C [8]: 86.9%
- viability, T/C [9]: 63.6%
- viability, T/C [10]: 62.3%
- viability, T/C [11]: 62%
- viability, T/C [12]: 24.5%
- viability, T/C [13]: 99.2%
- viability, T/C [14]: 93%
- viability, T/C [15]: 75.9%
- viability, T/C [16]: 65.3%
- viability, T/C [17]: 56.6%
- viability, T/C [18]: 25.5%
- viability, T/C [19]: 102%
- viability, T/C [20]: 89.7%
- viability, T/C [21]: 76.3%
- viability, T/C [22]: 70%
- viability, T/C [23]: 58.4%
- viability, T/C [24]: 24.7%
- viability, T/C [25]: 114%
- viability, T/C [26]: 97.8%
- viability, T/C [27]: 69.8%
- viability, T/C [28]: 72.2%
- viability, T/C [29]: 62.4%
- viability, T/C [30]: 22.2%
- viability, T/C [31]: 114%
- viability, T/C [32]: 89%
- viability, T/C [33]: 77.2%
- viability, T/C [34]: 68.8%
- viability, T/C [35]: 64.8%
- viability, T/C [36]: 11.3%

SMILES: CCC(CC)c1cc(NC2CCC(N)C2)n2nccc2n1 (centres undefined) + C#Cc1c(F)ccc2cc(O)cc(-c3ncc4c(N5CC6CCC(C5)N6)nc(OCC56CCCN5CC(F)C6)nc4c3F)c12
- pIC50 (second compound 0.0316 µM): 5.77
- pIC50 (second compound 0.1 µM): 5.79
- pIC50 (second compound 0.316 µM): 5.78
- pIC50 (second compound 1 µM): 5.76
- pIC50 (second compound 3.16 µM): 5.75
- pIC50 (second compound 10 µM): 5.76
- viability, T/C [1]: 96.8%
- viability, T/C [2]: 91.5%
- viability, T/C [3]: 103%
- viability, T/C [4]: 91.5%
- viability, T/C [5]: 0.88%
- viability, T/C [6]: 0.24%
- viability, T/C [7]: 104%
- viability, T/C [8]: 104%
- viability, T/C [9]: 92.9%
- viability, T/C [10]: 87.3%
- viability, T/C [11]: 0.78%
- viability, T/C [12]: 0.23%
- viability, T/C [13]: 107%
- viability, T/C [14]: 93.9%
- viability, T/C [15]: 98.5%
- viability, T/C [16]: 88.3%
- viability, T/C [17]: 0.84%
- viability, T/C [18]: 0.9%
- viability, T/C [19]: 112%
- viability, T/C [20]: 112%
- viability, T/C [21]: 120%
- viability, T/C [22]: 95.2%
- viability, T/C [23]: 1.22%
- viability, T/C [24]: 0.22%
- viability, T/C [25]: 103%
- viability, T/C [26]: 107%
- viability, T/C [27]: 107%
- viability, T/C [28]: 100%
- viability, T/C [29]: 0.97%
- viability, T/C [30]: 0.24%
- viability, T/C [31]: 116%
- viability, T/C [32]: 105%
- viability, T/C [33]: 105%
- viability, T/C [34]: 94.2%
- viability, T/C [35]: 0.5%
- viability, T/C [36]: 0.27%
